According to paper PMC7725003, “Systematically Studying the Optimal Amino Acid Distribution Patterns of the Amphiphilic Structure by Using the Ultrashort Amphiphiles” (Frontiers in Microbiology, 2020):
Where no end group is shown, it is not given here.

Columns and labels:
S. aureus 29213 [1] = experiment: Salt sensitivity assay (MIC); type: cell-based, Staphylococcus aureus; conditions: for MIC, FeCl3: 4 μM FeCl3; for MIC, NH4Cl: 6 μM NH4Cl; for MIC, ZnCl2: 8 μM ZnCl2; for MIC, MgCl2: 1 mM MgCl2; for MIC, CaCl2: 2 mM CaCl2; for MIC, KCl: 4.5 mM KCl; for MIC, NaCl: 150 mM NaCl; for MIC, Control: no added salt, three independent assays
Description: (§1) The antimicrobial activities of the peptides were measured using a method adapted from the National Committee for Clinical Laboratory Standards (NCCLS) with some modifications ([Chou et al., 2016]). The specific procedure for these assays has been previously described. In brief, the bacterial cells were grown to a mid-logarithmic phase and diluted in MHB to an ultimate concentration of 0.5–1 × 10^6 CFU mL^–1. Subsequently, the peptides were consecutively diluted in a 0.2% BSA solution and then added to a bacterial solution in a 96-well plate at identical volumes. After incubation for 24 h at 37°C, the MICs were determined to be the lowest peptide concentration that inhibited 95% of the bacterial growth by monitoring the absorbance at 492 nm using a microplate reader. Subsequently, 50 μL of each incubation mixture was further transferred to agar plates and incubated overnight. The minimum bactericidal concentrations (MBCs) were determined as the lowest peptide concentration that killed greater than 99.9% of the bacterial cells. Every assay was reproduced more than 3 times.
(§2) The salt sensitivities of the peptides were determined. E. coli ATCC 25922 and S. aureus ATCC 29213 were incubated in the presence of various ultimate concentrations of physiological salts (150 mM NaCl, 4.5 mM KCl, 6 μM NH4Cl, 8 μM ZnCl2, 1 mM MgCl2, 2mM CaCl2, and 4 μM FeCl3) according to our previous protocol ([Yang et al., 2019]). These tests were performed under the MICs, and three independent assays were performed.

E. coli O78 = type: cell-based, Escherichia coli; conditions: O78, 24 h
Description: as §1

E. coli UB1005 = type: cell-based, Escherichia coli; conditions: UB1005, 24 h
Description: as §1

E. coli 25922 = type: cell-based, Escherichia coli; conditions: 25922, 24 h
Description: as §1

P. aeruginosa 27853 = type: cell-based, Pseudomonas aeruginosa; conditions: 27853, 24 h
Description: as §1

E. faecalis 29212 = type: cell-based, Enterococcus faecalis; conditions: 29212, 24 h
Description: as §1

S. pullorum 7913 = type: cell-based, Salmonella pullorum; conditions: 7913, 24 h
Description: as §1

S. typhimurium 14028 = type: cell-based, Salmonella typhimurium; conditions: 14028, 24 h
Description: as §1

S. typhimurium 7731 = type: cell-based, Salmonella typhimurium; conditions: 7731, 24 h
Description: as §1

Gram-negative bacteria = conditions: for GM, Gram-negative bacteria: geometric mean of MICs (Table 3); for TI, Gram-negative bacteria: therapeutic index TI = MHC/GM MIC
Description: (§3) The antimicrobial activity of AMPs is the most decisive index for evaluating the clinical application of antimicrobial drugs.
as §1, with “The minimum bactericidal concentrations (MBCs) were determined as the lowest peptide concentration that killed greater than 99.9% of the bacterial cells.” left out

Gram-positive bacteria = conditions: for GM, Gram-positive bacteria: geometric mean of MICs (Table 3); for TI, Gram-positive bacteria: therapeutic index TI = MHC/GM MIC
Description: as §3
as §1, with “The minimum bactericidal concentrations (MBCs) were determined as the lowest peptide concentration that killed greater than 99.9% of the bacterial cells.” left out

S. aureus 29213 [2] = type: cell-based, Staphylococcus aureus; conditions: 29213, 24 h
Description: as §1

S. aureus 25923 = type: cell-based, Staphylococcus aureus; conditions: 25923, 24 h
Description: as §1

E. coli ATCC 25922 = experiment: Salt sensitivity assay (MIC); type: cell-based, Escherichia coli; conditions: for MIC, FeCl3: 4 μM FeCl3; for MIC, NH4Cl: 6 μM NH4Cl; for MIC, ZnCl2: 8 μM ZnCl2; for MIC, MgCl2: 1 mM MgCl2; for MIC, CaCl2: 2 mM CaCl2; for MIC, KCl: 4.5 mM KCl; for MIC, NaCl: 150 mM NaCl; for MIC, Control: no added salt, three independent assays
Description: as §1, §2

[3] = tested on: Listeria monocytogenes CGMCC 1.1075; type: cell-based; conditions: CGMCC 1.1075, 24 h
Description: as §1

B. subtilis 63501 = type: cell-based, Bacillus subtilis; conditions: 63501, 24 h
Description: as §1

S. epidermidis 12228 = type: cell-based, Staphylococcus epidermidis; conditions: 12228, 24 h
Description: as §1

[4] = tested on: all of the tested bacterial strains; experiment: Geometric mean of MICs, all tested bacterial strains; type: cell-based; conditions: for GM, All: geometric mean of MICs across all tested strains; for TI, All: therapeutic index TI = MHC/GM MIC
Text: The antimicrobial activity of AMPs is the most decisive index for evaluating the clinical application of antimicrobial drugs. Many antimicrobial agents inhibit bacterial growth rather than kill the bacteria quickly, and long-term infections are pathogens that are not completely killed, which results in bacterial severe drug resistance. […] The geometric mean (GM) values of the MICs/MBCs of the two series across all of the tested bacterial strains are represented in Table 3, which depicts the average bacteriostatic/bactericidal level of a peptide.
as §1

MRSA 43300 = type: cell-based, methicillin-resistant S. aureus; conditions: 43300, 24 h
Description: as §1

Substance: RRWWWRWRW-NH2 [W8]
- MIC, FeCl3 (S. aureus 29213 [1]): 2 µM
- MIC, NH4Cl (S. aureus 29213 [1]): 4 µM
- MIC, ZnCl2 (S. aureus 29213 [1]): 4 µM
- MIC, MgCl2 (S. aureus 29213 [1]): 4 µM
- MIC, CaCl2 (S. aureus 29213 [1]): 4 µM
- MIC, KCl (S. aureus 29213 [1]): 1 µM
- MIC, NaCl (S. aureus 29213 [1]): 2 µM
- MIC, Control (S. aureus 29213 [1]): 2 µM
- MBC (E. coli O78): 8 µM
- MIC (E. coli O78): 4 µM
- MBC (E. coli UB1005): 8 µM
- MIC (E. coli UB1005): 4 µM
- MBC (E. coli 25922): 8 µM
- MIC (E. coli 25922): 4 µM
- MBC (P. aeruginosa 27853): 8 µM
- MIC (P. aeruginosa 27853): 4 µM
- MBC (E. faecalis 29212): 8 µM
- MIC (E. faecalis 29212): 4 µM
- MBC (S. pullorum 7913): 4 µM
- MIC (S. pullorum 7913): 2 µM
- MBC (S. typhimurium 14028): 8 µM
- MIC (S. typhimurium 14028): 4 µM
- MBC (S. typhimurium 7731): 8 µM
- MIC (S. typhimurium 7731): 4 µM
- GM, Gram-negative bacteria (Gram-negative bacteria): 3.43 µM
- TI, Gram-negative bacteria (Gram-negative bacteria): 37.32
- GM, Gram-positive bacteria (Gram-positive bacteria): 2.00 µM
- TI, Gram-positive bacteria (Gram-positive bacteria): 64.00
- MBC (S. aureus 29213 [2]): 4 µM
- MIC (S. aureus 29213 [2]): 2 µM
- MBC (S. aureus 25923): 4 µM
- MIC (S. aureus 25923): 2 µM
- MIC, FeCl3 (E. coli ATCC 25922): 2 µM
- MIC, NH4Cl (E. coli ATCC 25922): 4 µM
- MIC, ZnCl2 (E. coli ATCC 25922): 4 µM
- MIC, MgCl2 (E. coli ATCC 25922): 16 µM
- MIC, CaCl2 (E. coli ATCC 25922): 8 µM
- MIC, KCl (E. coli ATCC 25922): 16 µM
- MIC, NaCl (E. coli ATCC 25922): 32 µM
- MIC, Control (E. coli ATCC 25922): 4 µM
- MBC [3]: 4 µM
- MIC [3]: 2 µM
- MBC (B. subtilis 63501): 2 µM
- MIC (B. subtilis 63501): 1 µM
- MBC (S. epidermidis 12228): 4 µM
- MIC (S. epidermidis 12228): 2 µM
- GM, All [4]: 2.71 µM
- TI, All [4]: 47.23
- MBC (MRSA 43300): 4 µM
- MIC (MRSA 43300): 2 µM

Substance: RRWWWWRRW-NH2 [W7]
- MIC, FeCl3 (S. aureus 29213 [1]): 8 µM
- MIC, NH4Cl (S. aureus 29213 [1]): 4 µM
- MIC, ZnCl2 (S. aureus 29213 [1]): 4 µM
- MIC, MgCl2 (S. aureus 29213 [1]): 4 µM
- MIC, CaCl2 (S. aureus 29213 [1]): 4 µM
- MIC, KCl (S. aureus 29213 [1]): 4 µM
- MIC, NaCl (S. aureus 29213 [1]): 4 µM
- MIC, Control (S. aureus 29213 [1]): 4 µM
- MBC (E. coli O78): 16 µM
- MIC (E. coli O78): 8 µM
- MBC (E. coli UB1005): 8 µM
- MIC (E. coli UB1005): 4 µM
- MBC (E. coli 25922): 8 µM
- MIC (E. coli 25922): 4 µM
- MBC (P. aeruginosa 27853): 32 µM
- MIC (P. aeruginosa 27853): 4 µM
- MBC (E. faecalis 29212): 16 µM
- MIC (E. faecalis 29212): 8 µM
- MBC (S. pullorum 7913): 8 µM
- MIC (S. pullorum 7913): 4 µM
- MBC (S. typhimurium 14028): 16 µM
- MIC (S. typhimurium 14028): 8 µM
- MBC (S. typhimurium 7731): 32 µM
- MIC (S. typhimurium 7731): 16 µM
- GM, Gram-negative bacteria (Gram-negative bacteria): 5.88 µM
- TI, Gram-negative bacteria (Gram-negative bacteria): 43.54
- GM, Gram-positive bacteria (Gram-positive bacteria): 2.44 µM
- TI, Gram-positive bacteria (Gram-positive bacteria): 104.92
- MBC (S. aureus 29213 [2]): 8 µM
- MIC (S. aureus 29213 [2]): 4 µM
- MBC (S. aureus 25923): 4 µM
- MIC (S. aureus 25923): 2 µM
- MIC, FeCl3 (E. coli ATCC 25922): 8 µM
- MIC, NH4Cl (E. coli ATCC 25922): 4 µM
- MIC, ZnCl2 (E. coli ATCC 25922): 4 µM
- MIC, MgCl2 (E. coli ATCC 25922): 4 µM
- MIC, CaCl2 (E. coli ATCC 25922): 8 µM
- MIC, KCl (E. coli ATCC 25922): 8 µM
- MIC, NaCl (E. coli ATCC 25922): 8 µM
- MIC, Control (E. coli ATCC 25922): 4 µM
- MBC [3]: 4 µM
- MIC [3]: 2 µM
- MBC (B. subtilis 63501): 2 µM
- MIC (B. subtilis 63501): 1 µM
- MBC (S. epidermidis 12228): 4 µM
- MIC (S. epidermidis 12228): 2 µM
- GM, All [4]: 4.00 µM
- TI, All [4]: 64.00
- MBC (MRSA 43300): 4 µM
- MIC (MRSA 43300): 2 µM
